Assay results as given in US9980943B2, “Methods of treating muscular dystrophy” (BOARD OF REGENTS OF THE NEVADA SYSTEM OF HIGHER EDUCATION, …, priority 2013, dated 2018).
Like-named read-outs stand apart in the source and are kept apart here.

Test system: α7 integrin (LacZ reporter in α7LacZ+/− myoblasts)
Assay: qHTS of the LOPAC library and MLSMR (online screen, α7LacZ+/− myoblasts)
Details: for activation at 0.307 µM / activation at 1.53 µM / activation at 7.66 µM / activation at 38.3 µM / Emax / EC50: Mus musculus, Myoblast; for activation at 0.307 µM: read-out: Activity at 0.307 uM [%] **; for activation at 1.53 µM: read-out: Activity at 1.530 uM [%] **; for activation at 7.66 µM: read-out: Activity at 7.660 uM [%] **; for activation at 38.3 µM: read-out: Activity at 38.30uM [%] **; for EC50: read-out: Fit LogAC50 (converted)
[1] = 48 h, read-out: Fit Infinite Activity [%]

Method: A total of 250 α7LacZ^+/− myoblasts at passage 13 were dispensed using a multidrop (Thermo) into black low base tissue culture treated microclear aurora plates in 6 μl media containing DMEM without phenol, 5% FBS, 1× GluMax and 1× Penicillin/Streptomycin. […] Compounds were then dispensed using a Kalypsys pintool to deliver 23 nl/well compounds in DMSO (diluted into 6 μl resulting in a 1:260 dilution of compound). […] After incubation with compound, 5 μl of the media was aspirated using the Kalypsys washer/dispenser and 3 μl of the Mammalian Protein Extraction Reagent (MPER) lysis buffer (Thermo Fisher) was added. […] The plates were then incubated for 10 minutes at room temperature.
The assay was adapted for a high-throughput screen with the fully automated Kalypsys robotic system using 1536 well plates at NCGC.

`Nc1nccc(-c2ccc(-n3cnc4ccccc43)cc2)n1` [Compound 192] showed an activation at 0.307 µM (48 h) of 0.89%, an activation at 1.53 µM (48 h) of 2.96% and an activation at 7.66 µM (48 h) of 15.9%. The activation at 38.3 µM (48 h) was 76.1%, the Emax [1] was 76.5% and the Emax (read-out: Max Response [%]) was 76.1%.

`COc1cc2c(cc1OC)C(NC(=O)C(F)(F)F)C/C2=N\O` (stereo not shown) [Compound 193] was tested, and the activation at 0.307 µM (48 h) was 3.74%, the activation at 1.53 µM (48 h) was 2% and the activation at 7.66 µM (48 h) was 17.9%. For the same molecule, the activation at 38.3 µM (48 h) was 91.5%, the Emax [1] was 92.3% and the Emax (read-out: Max Response [%]) was 91.5%.

`COc1ccc(N2CCN(CCC3Oc4cc([N+](=O)[O-])ccc4NC3=O)CC2)cc1` (stereo not shown) [Compound 194] gave a Score of 42, an activation at 0.307 µM (48 h) of -2.43% and an activation at 1.53 µM (48 h) of 0%. For the same molecule, the activation at 7.66 µM (48 h) was 30.6%, the activation at 38.3 µM (48 h) was 68% and the Emax [1] was 73.9%. The EC50 was 8.91 µM and the Emax (read-out: Max Response [%]) was 68%.

With `N#Cc1ccc(OCC(O)CS(=O)(=O)c2ccccc2)cc1` (stereo not shown) [Compound 195] the activation at 0.307 µM (48 h) was -7.88%, the activation at 1.53 µM (48 h) was -12% and the activation at 7.66 µM (48 h) was 15.3%. For the same molecule, the activation at 38.3 µM (48 h) was 89.4%, the Emax [1] was 89.6% and the EC50 was 10 µM. For the same molecule, the Emax (read-out: Max Response [%]) was 89.4%.

`Cc1ccccc1C(=O)Nc1nnc(SC(C)C)s1` [Compound 196] showed an activation at 0.307 µM (48 h) of 0%, an activation at 1.53 µM (48 h) of 0% and an activation at 7.66 µM (48 h) of 20.6%. For the same molecule, the activation at 38.3 µM (48 h) was 65.1%, the Emax [1] was 66.6% and the EC50 was 10 µM. The Emax (read-out: Max Response [%]) was 65.1%.

In the case of `CC(=O)c1cccc(NC(=O)C(=O)Nc2cccc3ccccc23)c1` [Compound 197], the activation at 0.307 µM (48 h) is reported as 5.25%, the activation at 1.53 µM (48 h) is reported as 15.7% and the activation at 7.66 µM (48 h) is reported as 40.8%. The activation at 38.3 µM (48 h) was 66.9%, the Emax [1] was 84.7% and the Emax (read-out: Max Response [%]) was 66.9%.

In the case of `Cc1cc(C)nc(NC(=O)c2ccc(Cl)cc2Cl)n1` [Compound 198], the activation at 0.307 µM (48 h) is reported as 2.39%, the activation at 1.53 µM (48 h) is reported as 0% and the activation at 7.66 µM (48 h) is reported as 17.6%. It also gave an activation at 38.3 µM (48 h) of 79.1%, an Emax [1] of 79.2% and an EC50 of 10 µM. The Emax (read-out: Max Response [%]) was 79.1%.

In the case of `CC(C)N(CCO)C(=O)CCc1nnc(CCCc2ccccc2)o1` [Compound 199], the activation at 0.307 µM (48 h) is reported as 0%, the activation at 1.53 µM (48 h) is reported as 7.61% and the activation at 7.66 µM (48 h) is reported as 32.2%. It also gave an activation at 38.3 µM (48 h) of 78.1%, an Emax [1] of 96.2% and an Emax (read-out: Max Response [%]) of 78.1%.

`c1ccc(CN2CCCC3(CCCN(Cc4nc(CC5CC5)no4)C3)C2)cc1` (stereo not shown) [Compound 200] gave an activation at 0.307 µM (48 h) of -40.9%, an activation at 1.53 µM (48 h) of -35.8% and an activation at 7.66 µM (48 h) of 1.57%. It also gave an activation at 38.3 µM (48 h) of 46.2%, an Emax [1] of 56.6% and an Emax (read-out: Max Response [%]) of 46.2%.

In the case of `Cn1c(=O)c2c(nc(Sc3ncnn3CC(=O)NC3CCCCC3)n2C)n(C)c1=O` [Compound 201], the activation at 0.307 µM (48 h) is reported as -21.5%, the activation at 1.53 µM (48 h) is reported as -17.1% and the activation at 7.66 µM (48 h) is reported as 8.09%. It also gave an activation at 38.3 µM (48 h) of 69.8%, an Emax [1] of 74.9% and an Emax (read-out: Max Response [%]) of 69.8%.

For `NS(=O)(=O)c1ccc(NC(=O)Nc2ccc(Cl)cc2)cc1` [Compound 202], the Score was 42.

Molecule `CC1=C(C#N)C(=O)N(C)C(=O)/C1=C\NNc1ccc(F)cc1` [Compound 203] has an activation at 0.307 µM (48 h) of -46%, an activation at 1.53 µM (48 h) of -36.9% and an activation at 7.66 µM (48 h) of 8.42%. For the same molecule, the activation at 38.3 µM (48 h) was 51.8%, the Emax [1] was 59.4% and the Emax (read-out: Max Response [%]) was 51.8%.

For `CCS(=O)(=O)N1CCN(c2ccc([N+](=O)[O-])c(NCC3CCCO3)c2)CC1` (stereo not shown) [Compound 204], the activation at 0.307 µM (48 h) was 0.881%, the activation at 1.53 µM (48 h) was 0.157% and the activation at 7.66 µM (48 h) was 20.1%. The activation at 38.3 µM (48 h) was 70.3%, the Emax [1] was 70.8% and the EC50 was 10 µM. The Emax (read-out: Max Response [%]) was 70.3%.

`O=C(NC(=S)NCCC1=CCCCC1)c1ccc(Br)o1` [Compound 205] showed an activation at 0.307 µM (48 h) of -39.4%, an activation at 1.53 µM (48 h) of -31.7% and an activation at 7.66 µM (48 h) of 12.1%. It also gave an activation at 38.3 µM (48 h) of 50.2%, an Emax [1] of 57.8% and an Emax (read-out: Max Response [%]) of 50.2%.

With `CCCC(=O)Nc1ccccc1NC(=O)c1ccc(OCC)cc1` [Compound 206] the activation at 0.307 µM (48 h) was 12.1%, the activation at 1.53 µM (48 h) was 15.3% and the activation at 7.66 µM (48 h) was 28.5%. For the same molecule, the activation at 38.3 µM (48 h) was 91.2%, the Emax [1] was 91.9% and the Emax (read-out: Max Response [%]) was 91.2%.

Work on `NS(=O)(=O)c1ccc(NC(=O)c2ccc(CNS(=O)(=O)c3cc(C(F)(F)F)ccc3Cl)cc2)cc1` [Compound 207] yielded an activation at 0.307 µM (48 h) of 0.545%, an activation at 1.53 µM (48 h) of 0% and an activation at 7.66 µM (48 h) of 25.5%. The activation at 38.3 µM (48 h) was 73.3%, the Emax [1] was 75.5% and the EC50 was 10 µM. The Emax (read-out: Max Response [%]) was 73.3%.

`COc1ccc(CN2CCNC(=O)C2CC(=O)NCCc2c[nH]c3ccccc23)c(OC)c1` (stereo not shown) [Compound 208] gave an activation at 0.307 µM (48 h) of -7.84%, an activation at 1.53 µM (48 h) of -10.8% and an activation at 7.66 µM (48 h) of 16.4%. For the same molecule, the activation at 38.3 µM (48 h) was 73.4%, the Emax [1] was 74.6% and the EC50 was 10 µM. For the same molecule, the Emax (read-out: Max Response [%]) was 73.4%.

In the case of `O=Cc1cn(Cc2ccc(F)cc2Cl)c2ccccc12` [Compound 209], the activation at 0.307 µM (48 h) is reported as 13%, the activation at 1.53 µM (48 h) is reported as 10.6% and the activation at 7.66 µM (48 h) is reported as 18.6%. The activation at 38.3 µM (48 h) was 139%, the Emax [1] was 142% and the Emax (read-out: Max Response [%]) was 139%.

`Cc1ccc(-c2nc(C)sc2CC(=O)OCC(=O)Nc2c(F)cccc2F)cc1` [Compound 210] gave an activation at 0.307 µM (48 h) of 13.8%, an activation at 1.53 µM (48 h) of 9.43% and an activation at 7.66 µM (48 h) of 20.3%. For the same molecule, the activation at 38.3 µM (48 h) was 113%, the Emax [1] was 113% and the Emax (read-out: Max Response [%]) was 113%.

With `CNC(=O)/C(=C\c1cccc(Oc2ccccc2)c1)NC(=O)c1ccccc1` [Compound 211] the activation at 0.307 µM (48 h) was 0.23%, the activation at 1.53 µM (48 h) was 11.6% and the activation at 7.66 µM (48 h) was 43%. The activation at 38.3 µM (48 h) was 87.9%, the Emax [1] was 110% and the Emax (read-out: Max Response [%]) was 87.9%.

For `O=S(=O)(NCC(c1ccco1)N1CCOCC1)c1ccc(Cl)cc1` (stereo not shown) [Compound 212], the activation at 0.307 µM (48 h) was 11.1%, the activation at 1.53 µM (48 h) was 7.37% and the activation at 7.66 µM (48 h) was 15.9%. It also gave an activation at 38.3 µM (48 h) of 128%, an Emax [1] of 129% and an Emax (read-out: Max Response [%]) of 128%.

Molecule `C=CCc1c(C)nc(-c2ccccc2)nc1N/N=C/c1ccccc1` [Compound 213] has an activation at 0.307 µM (48 h) of 0%, an activation at 1.53 µM (48 h) of 6.49% and an activation at 7.66 µM (48 h) of 41.1%. For the same molecule, the activation at 38.3 µM (48 h) was 90.1%, the Emax [1] was 109% and the Emax (read-out: Max Response [%]) was 90.1%.

Molecule `CCc1ccc(Sc2cc(C(=O)NCCN3CCOCC3)c3ccccc3n2)cc1` [Compound 214] has an activation at 0.307 µM (48 h) of 13.2%, an activation at 1.53 µM (48 h) of 16.1% and an activation at 7.66 µM (48 h) of 43.9%. It also gave an activation at 38.3 µM (48 h) of 101%, an Emax [1] of 108% and an Emax (read-out: Max Response [%]) of 101%.

With `O=C(Nc1ccc(Oc2cccnc2)cc1)c1ccccc1Cl` [Compound 215] the activation at 0.307 µM (48 h) was 14.2%, the activation at 1.53 µM (48 h) was 15.2% and the activation at 7.66 µM (48 h) was 40.8%. For the same molecule, the activation at 38.3 µM (48 h) was 83.3%, the Emax [1] was 87.4% and the EC50 was 10 µM. The Emax (read-out: Max Response [%]) was 83.3%.

Molecule `O=C(CNC(=O)c1cccc(F)c1)N/N=C/c1cc(Br)ccc1OCc1ccccc1` [Compound 216] has an activation at 0.307 µM (48 h) of 8.28%, an activation at 1.53 µM (48 h) of 20.8% and an activation at 7.66 µM (48 h) of 44%. It also gave an activation at 38.3 µM (48 h) of 71.7%, an Emax [1] of 94.4% and an EC50 of 10 µM. For the same molecule, the Emax (read-out: Max Response [%]) was 71.7%.

With `COc1ccc(CCNC(=O)c2cc(-c3cc(C)ccc3O)n[nH]2)cc1OC` [Compound 217] the activation at 0.307 µM (48 h) was 10.4%, the activation at 1.53 µM (48 h) was 9.29% and the activation at 7.66 µM (48 h) was 27.5%. It also gave an activation at 38.3 µM (48 h) of 65.2%, an Emax [1] of 66.2% and an EC50 of 10 µM. For the same molecule, the Emax (read-out: Max Response [%]) was 65.2%.

`N#Cc1ccc(Sc2nc3ccccc3[nH]2)cc1C#N` [Compound 218] gave an activation at 0.307 µM (48 h) of 14%, an activation at 1.53 µM (48 h) of 13.1% and an activation at 7.66 µM (48 h) of 29.8%. The activation at 38.3 µM (48 h) was 71.5%, the Emax [1] was 71.8% and the EC50 was 10 µM. It also gave an Emax (read-out: Max Response [%]) of 71.5%.
